In BindingDB's records for doi:10.1021/jm070521y (Wyeth Research, 2007):

Legend:
[1] = target: T1, 5-hydroxytryptamine receptor 6 (Homo sapiens, UniProt P50406); experiment: Radioligand Labeled Binding Assay and cAMP Production; details: pH 7.4; 22 °C
Method: (§1) IC50 values for each test compound were determined from nonlinear regression analysis of data collected from ligand binding experiments. The inhibition constant (Ki) was calculated from IC50 value by the Cheng and Prusoff equation.

[2] = target: T1, 5-hydroxytryptamine receptor 6; experiment: Radioligand Labeled Binding Assay; details: pH 7.4; 22 °C
Method: as §1

T1 sequence (P50406 whole entry): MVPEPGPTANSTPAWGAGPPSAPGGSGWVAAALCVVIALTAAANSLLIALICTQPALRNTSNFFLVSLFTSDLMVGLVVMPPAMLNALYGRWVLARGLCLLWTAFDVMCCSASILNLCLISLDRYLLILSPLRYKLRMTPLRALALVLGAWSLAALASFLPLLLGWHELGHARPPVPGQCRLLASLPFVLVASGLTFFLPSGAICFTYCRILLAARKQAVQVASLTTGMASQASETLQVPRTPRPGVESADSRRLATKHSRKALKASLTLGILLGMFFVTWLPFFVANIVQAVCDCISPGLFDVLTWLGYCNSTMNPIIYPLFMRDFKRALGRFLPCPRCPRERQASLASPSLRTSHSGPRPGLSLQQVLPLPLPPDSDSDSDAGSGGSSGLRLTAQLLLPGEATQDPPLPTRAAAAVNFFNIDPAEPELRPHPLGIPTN

Row | Structure (SMILES) | EC50 [1] | Ki [1] | Ki [2]
1 | COc1ccc(S(=O)(=O)n2cc(CCN)c3ccccc32)cc1OC [2-{1-[(3,4-dimethoxybenzene)sulfonyl]-1H-indol-3-yl}ethan-1-amine] | 17.5 nM |  | 
2 | Cc1nc(N)sc1S(=O)(=O)n1cc(CCN)c2ccccc21 [5-{[3-(2-aminoethyl)-1H-indole-1-]sulfonyl}-4-methyl-1,3-thiazol-2-amine] | 9.6 nM | 10 nM | 
3 | NC(N)=NN=Cc1c[nH]c2ccc(Br)cc12 [3-[(E)-[(5-bromo-1H-indol-3-yl)methylidene]amino]guanidine] |  |  | 25 nM
4 | CC(=NNC(=N)N)c1cn(S(=O)(=O)c2ccccc2)c2ccccc12 [3-[(E)-{1-[1-(benzenesulfonyl)-1H-indol-3-yl]ethylidene}amino]guanidine] |  |  | 8 nM
